Where two headings read alike, the source gives them in different places. Some results are limits rather than exact numbers.

The subject of one series is DBA/2 mice. Put plainly: Audiogenic seizure model. Particulars: Mus musculus, read-out: Seizure suppression. In kind it is in vivo. In short, it runs like this:
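Male and female DBA/2 mice (3 weeks old, 8/group) dosed orally at 30 mg/kg in 5% gum arabic; 1 h later exposed to 12.6 kHz, 100-110 dB tone for 1 min or until tonic seizure. Maximum seizure score (0–4) recorded; suppression rate graded A (≥90%), B (70–<90%), C (50–<70%).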

Another series relates to ICR mice. Put plainly: Rotarod test (motor coordination). Particulars: oral, rotarod 1 hour after administration. In kind it is in vivo, mouse. On the procedure:
This test is performed to evaluate the effect of the compound on the motor coordination. In this test example, the example compounds shown in Table 4 below were used as test compounds. Male ICR mice (Japan SLC, Inc., 5-6 weeks, 8 per group) were trained to remain on a fixed speed (15 rpm) rotating rod of rotarod apparatus (Muromachi Kikai Co., Ltd.) for 2 minutes. […] After 1 hour of oral administration, the mice were again placed on the rod accelerated from 4 rpm to 40 rpm over 5 minutes and the latency to fall off the rod was recorded for 200 seconds. The falling latency of the compound administration group was calculated as a relative value relative to the average value of the falling latency in the solvent administration group. Here, a coordination disorder of 25% or less was expressed as “A”, and a coordination disorder of more than 25% and 50% or less was expressed as “B”.

The mark [1] stands for this setting: DBA/2 mice, oral, auditory stimulation 1 hour after administration.
The mark [2] stands for this setting: DBA/2 mice, oral, dose 30 mg/kg, auditory stimulation 1 hour after administration.

As for `FC(F)(F)c1ccc(-c2cnc(Oc3ccccc3)nc2)nn1` [Example 38, 3-(2-Phenoxypyrimidin-5-Yl)-6-(Trifluoromethyl)Pyridazine], the inhibition in vivo at 10 mg/kg in the series with DBA/2 mice (setting [1]) was > 90%. The Motor dysfunction result in the series on ICR mice (dose 10 mg/kg) is “A (a coordination disorder of 25% or less)”.
In the case of `Nc1ccc(-c2cnc(Oc3cccc(C(F)(F)F)c3)nc2)nn1` [Example 40], the inhibition in vivo at 3 mg/kg in the series with DBA/2 mice (setting [1]) is > 90%. Besides, the Motor dysfunction entry with ICR mice (dose 3 mg/kg) is recorded as “A (a coordination disorder of 25% or less)”.
Take `Nc1ccc(-c2cnc(Oc3cccc(OC(F)(F)F)c3)nc2)nn1` [Example 42]: the inhibition in vivo at 5 mg/kg in the series with DBA/2 mice (setting [1]) was > 90%. Also, in the series with ICR mice (dose 5 mg/kg), the Motor dysfunction result is “A (a coordination disorder of 25% or less)”.
`Nc1cc(-c2cnc(Oc3ccccc3)nc2)ccn1` [Example 55]: the inhibition in vivo at 30 mg/kg in the series on DBA/2 mice (po, 1 h) was > 90%. For the same molecule, the Motor dysfunction entry in the series with ICR mice (dose 30 mg/kg) is reported as “A (a coordination disorder of 25% or less)”.
For `Nc1cncc(-c2cnc(Oc3ccccc3)nc2)c1` [Example 58], the inhibition in vivo at 30 mg/kg in the series on DBA/2 mice (setting [2]) is > 90%. The Motor dysfunction entry in the series with ICR mice (dose 30 mg/kg) is reported as “A (a coordination disorder of 25% or less)”.
For `Cc1nc(N)ccc1-c1cnc(Oc2ccccc2)nc1` [Example 59], the inhibition in vivo at 3 mg/kg in the series with DBA/2 mice (setting [1]) was > 90%. Further, in the series with ICR mice (dose 3 mg/kg), the Motor dysfunction result is recorded as “A (a coordination disorder of 25% or less)”.
The matching figures for `Cc1ccc(-c2cnc(Oc3ccccc3)nc2)c(N)n1` [Example 64]: > 90% and “A (a coordination disorder of 25% or less)”.
Take `Nc1ccc(-c2cnc(Oc3ccccc3)nc2)c(N)n1` [Example 66]: in the series on DBA/2 mice (setting [2]), the inhibition in vivo at 30 mg/kg is > 90%. Also, the Motor dysfunction entry in the series with ICR mice (dose 30 mg/kg) was “A (a coordination disorder of 25% or less)”.
With `COc1ccc(-c2cnc(Oc3cccnc3)nc2)nn1` [Example 74], the inhibition in vivo at 5 mg/kg with DBA/2 mice (setting [1]) was > 90%. In the series on ICR mice (dose 5 mg/kg), the Motor dysfunction result is “A (a coordination disorder of 25% or less)”.
Turning to `Nc1ccc(-c2cnc(Oc3cccnc3)nc2)cn1` [Example 90], in the series with DBA/2 mice (setting [1]), the inhibition in vivo at 5 mg/kg lay in the range of 70 to 90%. The Motor dysfunction entry in the series with ICR mice (dose 5 mg/kg) is on record as “A (a coordination disorder of 25% or less)”.
For `O=c1ccc(-c2cnc(Oc3ccccc3)nc2)n[nH]1` [Example 91, 6-(2-Phenoxypyrimidin-5-Yl)Pyridazin-3 (2H)-One], the inhibition in vivo at 5 mg/kg with DBA/2 mice (setting [1]) is > 90%. Also, in the series with ICR mice (dose 5 mg/kg), the Motor dysfunction result is “A (a coordination disorder of 25% or less)”.
With `O=C1CCC(c2cnc(Oc3ccccc3)nc2)=NN1` [Example 92, 6-(2-Phenoxypyrimidin-5-Yl)-4,5-Dihydropyridazin-3 (2H)-One], the inhibition in vivo at 5 mg/kg in the series with DBA/2 mice (setting [1]) is > 90%. In the series on ICR mice (dose 5 mg/kg), the Motor dysfunction entry is recorded as “A (a coordination disorder of 25% or less)”.
For `O=c1ccc(-c2cnc(Oc3cccc(F)c3)nc2)n[nH]1` [Example 93], the inhibition in vivo at 30 mg/kg with DBA/2 mice (setting [2]) is > 90%. For the same molecule, in the series with ICR mice (dose 30 mg/kg), the Motor dysfunction result is “A (a coordination disorder of 25% or less)”.
Turning to `O=c1ccc(-c2cnc(Oc3ccccc3F)nc2)n[nH]1` [Example 95], the inhibition in vivo at 3 mg/kg with DBA/2 mice (setting [1]) is > 90%. For the same molecule, in the series with ICR mice (dose 10 mg/kg), the Motor dysfunction entry is reported as “A (a coordination disorder of 25% or less)”.
With `O=c1ccc(-c2cnc(Oc3ccc(F)cc3)nc2)n[nH]1` [Example 97], in the series on DBA/2 mice (setting [1]), the inhibition in vivo at 3 mg/kg was > 90%. For the same molecule, in the series with ICR mice (dose 3 mg/kg), the Motor dysfunction result was “A (a coordination disorder of 25% or less)”.
In the case of `O=C1CCC(c2cnc(Oc3ccc(F)cc3)nc2)=NN1` [Example 98], the inhibition in vivo at 3 mg/kg in the series with DBA/2 mice (setting [1]) is > 90%. In the series with ICR mice (dose 3 mg/kg), the Motor dysfunction result is “A (a coordination disorder of 25% or less)”.
As for `O=c1ccc(-c2cnc(Oc3cccc(C(F)(F)F)c3)nc2)n[nH]1` [Example 99], the inhibition in vivo at 10 mg/kg in the series on DBA/2 mice (setting [1]) was > 90%. Further, the Motor dysfunction result in the series on ICR mice (dose 10 mg/kg) is recorded as “A (a coordination disorder of 25% or less)”.
`O=c1ccc(-c2cnc(Oc3c(F)cccc3F)nc2)n[nH]1` [Example 101]: the inhibition in vivo at 3 mg/kg with DBA/2 mice (setting [1]) was > 90%. Also, the Motor dysfunction result with ICR mice (dose 3 mg/kg) was “A (a coordination disorder of 25% or less)”.
As for `O=c1ccc(-c2cnc(Oc3cc(F)cc(F)c3)nc2)n[nH]1` [Example 102], in the series with DBA/2 mice (setting [1]), the inhibition in vivo at 10 mg/kg was > 90%. Also, in the series on ICR mice (dose 10 mg/kg), the Motor dysfunction result is “A (a coordination disorder of 25% or less)”.
For the molecule `O=c1ccc(-c2cnc(Oc3ccccc3)nc2)c[nH]1` [Example 103], the inhibition in vivo at 30 mg/kg with DBA/2 mice (setting [2]) was > 90%. In the series with ICR mice (dose 30 mg/kg), the Motor dysfunction entry is “A (a coordination disorder of 25% or less)”.
The matching figures for `O=c1[nH]cccc1-c1cnc(Oc2ccccc2)nc1` [Example 107]: > 90% and “A (a coordination disorder of 25% or less)”.
Turning to `O=c1ccc(-c2cnc(Oc3cccnc3)nc2)n[nH]1` [Example 113], the inhibition in vivo at 10 mg/kg in the series with DBA/2 mice (setting [1]) was > 90%. Further, the Motor dysfunction result in the series with ICR mice (dose 10 mg/kg) is given as “A (a coordination disorder of 25% or less)”.
In the case of `O=c1[nH]nccc1-c1cnc(Oc2ccccc2)nc1` [Example 114, 4-(2-Phenoxypyrimidin-5-Yl)Pyridazin-3 (2H)-One], the inhibition in vivo at 5 mg/kg in the series with DBA/2 mice (setting [1]) was > 90%. Besides, in the series on ICR mice (dose 5 mg/kg), the Motor dysfunction entry was “A (a coordination disorder of 25% or less)”.
With `c1ccc(Oc2ncc(-c3ccnc4ccccc34)cn2)cc1` [Example 118, 4-(2-Phenoxypyrimidin-5-Yl) Quinoline], in the series on DBA/2 mice (setting [1]), the inhibition in vivo at 5 mg/kg was in the range of 70 to 90%. Moreover, in the series on ICR mice (dose 5 mg/kg), the Motor dysfunction result is on record as “A (a coordination disorder of 25% or less)”.
The corresponding values for `c1ccc(Oc2ncc(-c3ccc4nccn4c3)cn2)cc1` [Example 119, 6-(2-Phenoxypyrimidin-5-Yl) Imidazo[1,2-a]Pyridine] are > 90% and “A (a coordination disorder of 25% or less)”.
With `Fc1ccc(Oc2ncc(-c3ccc4nccn4c3)cn2)cc1` [Example 120], the inhibition in vivo at 5 mg/kg with DBA/2 mice (setting [1]) was > 90%. Moreover, the Motor dysfunction result in the series on ICR mice (dose 5 mg/kg) was “B (a coordination disorder of more than 25% and 50% or less)”.
As for `Fc1ccccc1Oc1ncc(-c2ccc3nccn3c2)cn1` [Example 121], the inhibition in vivo at 5 mg/kg in the series on DBA/2 mice (setting [1]) was > 90%. For the same molecule, the Motor dysfunction entry in the series with ICR mice (dose 5 mg/kg) is on record as “A (a coordination disorder of 25% or less)”.
The corresponding values for `Fc1cccc(Oc2ncc(-c3ccc4nccn4c3)cn2)c1` [Example 122] are > 90% and “A (a coordination disorder of 25% or less)”.
`c1ccc(Oc2ncc(-c3ccc4nccn4n3)cn2)cc1` [Example 123, 6-(2-Phenoxypyrimidin-5-Yl) Imidazo[1,2-b]Pyridazine]: the inhibition in vivo at 5 mg/kg in the series on DBA/2 mice (setting [1]) is > 90%. For the same molecule, the Motor dysfunction entry in the series on ICR mice (dose 5 mg/kg) is “A (a coordination disorder of 25% or less)”.
With `c1ccc(Oc2ncc(-c3ccn4ccnc4c3)cn2)cc1` [Example 127], the inhibition in vivo at 5 mg/kg with DBA/2 mice (setting [1]) was > 90%. Also, in the series on ICR mice (dose 5 mg/kg), the Motor dysfunction entry was “B (a coordination disorder of more than 25% and 50% or less)”.
For `c1ccc(Oc2ncc(-c3ccc4nncn4c3)cn2)cc1` [Example 129], the inhibition in vivo at 5 mg/kg in the series on DBA/2 mice (setting [1]) is > 90%. Besides, the Motor dysfunction entry in the series with ICR mice (dose 5 mg/kg) was “A (a coordination disorder of 25% or less)”.
Regarding `c1ccc(Oc2ncc(-c3ccn4nccc4n3)cn2)cc1` [Example 134], the inhibition in vivo at 5 mg/kg in the series on DBA/2 mice (setting [1]) is > 90%. Also, in the series with ICR mice (dose 5 mg/kg), the Motor dysfunction result was “B (a coordination disorder of more than 25% and 50% or less)”.
For the molecule `c1ccc(Oc2ncc(-c3cnc4cc[nH]c4c3)cn2)cc1` [Example 137, 6-(2-Phenoxypyrimidin-5-Yl)-1H-Pyrrolo[3,2-b]Pyridine], in the series with DBA/2 mice (setting [2]), the inhibition in vivo at 30 mg/kg was > 90%. In addition, the Motor dysfunction entry in the series with ICR mice (dose 30 mg/kg) is reported as “A (a coordination disorder of 25% or less)”.
For the molecule `c1ccc(Oc2ncc(-c3ccc4ncnn4c3)cn2)cc1` [Example 141], in the series on DBA/2 mice (setting [1]), the inhibition in vivo at 5 mg/kg is > 90%. Besides, the Motor dysfunction result in the series with ICR mice (dose 5 mg/kg) was “B (a coordination disorder of more than 25% and 50% or less)”.
Regarding `c1ccc(Oc2ncc(-c3ccc4ncccc4n3)cn2)cc1` [Example 143], the inhibition in vivo at 30 mg/kg with DBA/2 mice (setting [2]) was > 90%. Moreover, in the series on ICR mice (dose 30 mg/kg), the Motor dysfunction result is listed as “A (a coordination disorder of 25% or less)”.
On to `c1ccc(Oc2ncc(-c3cn4ccnc4cn3)cn2)cc1` [Example 148], for which the inhibition in vivo at 30 mg/kg in the series on DBA/2 mice (setting [2]) is > 90%. Besides, in the series on ICR mice (dose 30 mg/kg), the Motor dysfunction result was “A (a coordination disorder of 25% or less)”.
As to `c1ccc(Oc2ncc(-c3ccc4ccnn4c3)cn2)cc1` [Example 151], the inhibition in vivo at 5 mg/kg in the series with DBA/2 mice (setting [1]) was > 90%. Besides, in the series on ICR mice (dose 5 mg/kg), the Motor dysfunction result is “A (a coordination disorder of 25% or less)”.
As to `c1ccc(Oc2ncc(-c3ccc4cncn4c3)cn2)cc1` [Example 155], the inhibition in vivo at 5 mg/kg in the series with DBA/2 mice (setting [1]) was > 90%. Also, the Motor dysfunction entry with ICR mice (dose 5 mg/kg) is listed as “A (a coordination disorder of 25% or less)”.
As for `Cc1cccc(Oc2ncc(-c3ccc4nccn4c3)cn2)c1` [Example 161], the inhibition in vivo at 5 mg/kg with DBA/2 mice (setting [1]) is > 90%. In addition, the Motor dysfunction result with ICR mice (dose 5 mg/kg) is listed as “A (a coordination disorder of 25% or less)”.
Turning to `COc1cccc(Oc2ncc(-c3ccc4nccn4c3)cn2)c1` [Example 162], the inhibition in vivo at 5 mg/kg in the series with DBA/2 mice (setting [1]) was > 90%. The Motor dysfunction result in the series on ICR mice (dose 5 mg/kg) is reported as “A (a coordination disorder of 25% or less)”.

For the origin of these results see patent publication US12391674B2, “Heterocyclic compounds for the treatment of epilepsy” (OTSUKA PHARMACEUTICAL CO., LTD., priority 2018, dated 2025).
